What was measured:
Experiment in all cases: relative viability (nuclei count vs DMSO), 5 days (fraction); higher = more cells survive
AT9283 + Trametinib = compound: O=C(Nc1c[nH]nc1-c1nc2ccc(CN3CCOCC3)cc2[nH]1)NC1CC1 [AT9283] + CC(=O)Nc1cccc(-n2c(=O)n(C3CC3)c(=O)c3c(Nc4ccc(I)cc4F)n(C)c(=O)c(C)c32)c1 [Trametinib] (partner 0.02 µM)
Summary of the method: (§1)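 One day after seeding in 1536-well plates, lung cancer cell lines were dosed by pin tool. Dosing was either single-drug or a fixed anchor-drug dose plus five library-drug doses (not always all listed) in √10 steps. After 5 days, nuclei were stained in one fix-and-stain step and counted on 4× images, and relative viability is the nuclei count of treated wells over that of vehicle wells, given as the median of duplicate plates.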

AT9283 + Pictilisib = compound: O=C(Nc1c[nH]nc1-c1nc2ccc(CN3CCOCC3)cc2[nH]1)NC1CC1 [AT9283] + CS(=O)(=O)N1CCN(Cc2cc3nc(-c4cccc5[nH]ncc45)nc(N4CCOCC4)c3s2)CC1 [Pictilisib] (partner 1 µM)
Summary of the method: as §1

Erlotinib + Phenformin = compound: C#Cc1cccc(Nc2ncnc3cc(OCCOC)c(OCCOC)cc23)c1 [Erlotinib] + N=C(N)NC(=N)NCCc1ccccc1 [Phenformin] (partner 250 µM)
Summary of the method: as §1

Erlotinib + Crizotinib = compound: C#Cc1cccc(Nc2ncnc3cc(OCCOC)c(OCCOC)cc23)c1 [Erlotinib] + C[C@@H](Oc1cc(-c2cnn(C3CCNCC3)c2)cnc1N)c1c(Cl)ccc(F)c1Cl [Crizotinib] (partner 1 µM)
Summary of the method: as §1

Erlotinib + Lapatinib = compound: C#Cc1cccc(Nc2ncnc3cc(OCCOC)c(OCCOC)cc23)c1 [Erlotinib] + CS(=O)(=O)CCNCc1ccc(-c2ccc3ncnc(Nc4ccc(OCc5cccc(F)c5)c(Cl)c4)c3c2)o1 [Lapatinib] (partner 2 µM)
Summary of the method: as §1

Row | Cell Line | relative viability (AT9283 + Trametinib; first compound 0.003 µM) | relative viability (AT9283 + Trametinib; first compound 0.03 µM) | relative viability (AT9283 + Trametinib; first compound 0.09487 µM) | relative viability (AT9283 + Trametinib; first compound 0.3 µM) | relative viability (AT9283 + Pictilisib; first compound 0.003 µM) | relative viability (AT9283 + Pictilisib; first compound 0.03 µM) | relative viability (AT9283 + Pictilisib; first compound 0.09487 µM) | relative viability (AT9283 + Pictilisib; first compound 0.3 µM) | relative viability (Erlotinib + Phenformin; first compound 0.02 µM) | relative viability (Erlotinib + Phenformin; first compound 0.2 µM) | relative viability (Erlotinib + Phenformin; first compound 0.6325 µM) | relative viability (Erlotinib + Phenformin; first compound 2 µM) | relative viability (Erlotinib + Crizotinib; first compound 0.02 µM) | relative viability (Erlotinib + Crizotinib; first compound 0.2 µM) | relative viability (Erlotinib + Crizotinib; first compound 0.6325 µM) | relative viability (Erlotinib + Crizotinib; first compound 2 µM) | relative viability (Erlotinib + Lapatinib; first compound 0.02 µM) | relative viability (Erlotinib + Lapatinib; first compound 0.2 µM) | relative viability (Erlotinib + Lapatinib; first compound 0.6325 µM) | relative viability (Erlotinib + Lapatinib; first compound 2 µM)
1 | NCI-H1437 | 0.547 | 0.568 | 0.302 | 0.14 | 0.439 | 0.468 | 0.12 | 0.126 | 0.352 | 0.301 | 0.286 | 0.286 | 1.01 | 1.02 | 1.12 | 0.883 | 0.788 | 0.812 | 1 | 0.726
2 | NCI-H1650 | 0.604 | 0.545 | 0.399 | 0.179 | 0.586 | 0.273 | 0.178 | 0.218 | 0.4 | 0.263 | 0.411 | 0.274 | 0.85 | 0.721 | 0.924 | 0.643 | 0.705 | 0.728 | 0.899 | 0.828
3 | NCI-H1651 | 0.838 | 0.875 | 0.819 | 0.39 | 0.59 | 0.572 | 0.24 | 0.255 | 0.336 | 0.316 | 0.288 | 0.259 | 0.876 | 0.801 | 0.92 | 0.786 | 0.906 | 0.693 | 1.02 | 0.768
4 | NCI-H1666 | 0.852 | 0.721 | 0.637 | 0.474 | 0.351 | 0.326 | 0.267 | 0.274 | 0.562 | 0.584 | 0.522 | 0.533 | 1.02 | 0.856 | 0.66 | 0.428 | 0.714 | 0.552 | 0.698 | 0.699
5 | NCI-H1734 | 0.7 | 0.406 | 0.267 | 0.271 | 0.406 | 0.271 | 0.299 | 0.221 | 0.4 | 0.378 | 0.391 | 0.359 | 0.644 | 0.653 | 0.753 | 0.654 | 1.15 | 1.02 | 1.3 | 1
6 | NCI-H1755 | 0.8 | 0.815 | 0.637 | 0.557 | 0.437 | 0.395 | 0.296 | 0.261 | 0.614 |  | 0.642 | 0.582 | 0.889 | 0.888 | 0.904 |  |  | 1.06 | 1.09 | 1.02
7 | NCI-H1792 | 0.315 | 0.376 | 0.509 | 0.258 | 0.215 | 0.334 | 0.0902 | 0.0932 | 0.24 | 0.219 | 0.207 | 0.186 | 1 | 0.931 | 1.06 | 0.801 |  | 0.877 | 1.18 | 0.842
8 | NCI-H1915 | 0.3 | 0.31 | 0.225 | 0.132 | 0.854 | 0.95 | 0.293 | 0.178 | 0.398 | 0.378 | 0.383 | 0.35 | 0.948 | 0.832 | 0.919 | 0.86 | 1.01 | 0.987 |  | 0.992
9 | NCI-H1944 | 0.408 | 0.307 | 0.196 | 0.206 | 0.327 | 0.307 | 0.221 | 0.224 | 0.199 | 0.194 | 0.198 | 0.172 | 0.964 | 0.701 | 0.844 | 0.626 | 0.79 | 0.65 | 1.05 | 0.816
10 | NCI-H1975 | 0.323 | 0.777 | 0.337 | 0.234 | 0.26 | 0.179 | 0.18 | 0.165 | 0.415 | 0.377 | 0.405 | 0.38 | 0.947 | 0.96 | 1.04 | 0.694 |  | 0.885 | 0.908 | 
11 | NCI-H1993 | 0.541 | 0.529 | 0.445 | 0.433 | 0.841 | 0.748 | 0.934 | 0.661 | 0.564 | 0.59 | 0.573 | 0.549 | 0.816 | 0.646 | 0.854 | 0.713 | 0.961 | 0.795 | 0.698 | 0.827
12 | NCI-H2009 | 0.346 | 0.267 | 0.17 | 0.0856 | 0.774 | 0.462 | 0.239 | 0.0896 | 0.533 | 0.51 | 0.529 | 0.49 | 1.02 | 1.07 | 1.15 |  | 0.971 | 1.03 | 1.07 | 0.889
13 | NCI-H2023 | 0.572 | 0.604 | 0.227 | 0.119 | 0.216 | 0.106 | 0.0878 | 0.111 | 0.435 | 0.418 | 0.471 | 0.378 | 0.575 | 0.44 | 0.469 | 0.294 | 0.737 | 0.651 | 0.965 | 
14 | NCI-H2085 | 0.532 | 0.453 | 0.395 | 0.318 | 0.404 | 0.417 | 0.19 | 0.196 | 0.762 | 0.493 | 0.528 | 0.472 | 0.794 | 0.835 | 0.739 | 0.57 | 0.775 | 0.74 | 0.845 | 
